Bridges are numbered along the chain shown (N, C = ends). [ ]: non-standard residue; d: D form. isopeptide = not defined here; Ahp = NCCCCCCC(=O)O
Tests used:
VEGFR2 [1] = experiment: Antagonism of VEGF-stimulated VEGFR2 phosphorylation, western blot in PAEC overexpressing VEGFR2; format: cell-based
[2] = tested on: human umbilical vein endothelial cells (HUVECs); experiment: HUVEC proliferation assay (cell counting), with or without SU5614; format: cell-based; settings: SU5614 (10 μM) alone, 0 ng/mL peptide, 72 h
Procedure: As the activation of ERK1/2 pathway in ECs leads to DNA synthesis and cell proliferation, we evaluated whether EP3, EP5 and EP6 peptides were able to stimulate cell growth. A proliferation assay was performed on human umbilical vein endothelial cells (HUVECs). Cells in starvation medium were incubated with increasing concentrations (0.5, 5 and 50 ng/mL) of the selected peptides and VEGF, and cell number was counted after 72 h. […] Cell survival was evaluated by MTT assay in PAEC-VEGFR2 following stimulation with EP6 and equimolar concentration with control peptides for 48 h.
The same proliferation assay was repeated in HUVEC in presence of the tyrosine kinase inhibitor SU5614 (Table 1). In the presence of the inhibitor, the proliferative effect of the EP peptides was suppressed, confirming that EP-induced proliferation was correlated to VEGFR2 phosphorylation.
Human Umbilical Vein Endothelial Cells (HUVECs) were purchased from Lonza (Basel, Switzerland). All experiments were performed on low passage cell cultures. […]
HUVECs were plated at density of 1500 cells/well in 96-well gelatin-coated microplates. […] Cell proliferation was evaluated as number of cells counted per well[35].

VEGFR2 [3] = experiment: VEGFR2 auto-phosphorylation (agonism), anti-phospho-Tyr western blot in PAEC overexpressing VEGFR2; format: cell-based
C57 black mice = experiment: In vivo Matrigel plug angiogenesis assay; settings: 500 ng/plug, subcutaneous Matrigel, 10 days, implants inspected and haemoglobin content measured (Fig. 7B)
Procedure: Figure 7 In vitro and in vivo angiogenic properties of EP peptides. (A) HUVECs were plated onto a layer of basement membrane matrix (Matrigel) and incubated at 37 °C for 18 h in the presence of EP3, EP5, EP6 and VEGF (50 ng/mL). After treatment, photomicrographs of tubular structures (Top) were quantified as angiogenic index, calculated as the number of complete circles counted/field by microscope image analysis (Bottom). *p < 0.05 vs basal control. (B) In vivo Matrigel angiogenesis assay was performed by injecting Matrigel solution containing 500 ng of the selected EP peptides into the dorsal midline region of C57 black mice. […] After 10 days Matrigel implants were recovered (Top) and analyzed for their haemoglobin content (bottom). *p < 0.05 and **p < 0.01 vs Matrigel alone.
The pro-angiogenic activity of EP peptides was evaluated by an in vivo test, using Matrigel plugs loaded with EP3, EP5 or EP6 peptides or VEGF (500 ng/plug). […] The hemoglobin content of explanted plugs was measured by a spectrophotometric assay (Fig. 7B, Bottom).
In vivo Matrigel angiogenesis assay was performed as previously described. […] Plugs were resuspended in 1 ml of Drabkin’s reagent for 18 h on ice and haemoglobin concentration was determined by absorbance at 540 nm and compared with a standard curve (Sigma-Aldrich, Milan, Italy).

[4] = target: T1, second domain of VEGFR1 (VEGFR1D2) (UniProt P17948 129-229); experiment: NMR titration; 2D [15N,1H] HSQC chemical shift perturbation; 110 μM 15N-labeled VEGFR1D2, EP6 added from 27.5 to 550 μM; 20 mM Tris-HCl pH 7.5, 0.02% sodium azide, 10% 2H2O; 298 K; single-site fit, overall apparent KD as mean over the residues of the binding site; settings: both partners purified
T1 construct: VEGFR1 (vascular endothelial growth factor receptor 1), second domain; The shifts were mapped onto the NMR structure PDB 1QSV of VEGFR1D2; also called domain 2 of VEGFR1; source: recombinant; 15N-labeled for the HSQC titration
T1 sequence (P17948 129-229): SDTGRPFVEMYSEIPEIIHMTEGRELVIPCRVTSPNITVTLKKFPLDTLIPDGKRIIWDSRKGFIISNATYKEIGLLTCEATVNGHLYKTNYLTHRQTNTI

In the case of `Cc1cc(C)c(/C=C2\C(=O)Nc3ccc(Cl)cc32)[nH]1` [SU5614], the “antagonism of VEGF-stimulated VEGFR2 phosphorylation (in words)” value (VEGFR2 [1]; EP/control peptides 50 ng/mL 15 min, then VEGF 50 ng/mL 15 min, SU5614 10 μM (Fig. 2B)) is reported as “inhibited”, the “VEGFR2 phosphorylation after VEGF, ∆ of fold increase respect to VEGF induced response” value (VEGFR2 [1]; peptide 50 ng/mL pretreatment 15 min, then VEGF 50 ng/mL for additional 15 min, serum deprivation, SU5614 10 μM, western blot quantification, representative of three experiments) is reported as 0.15 ± 0.05 ∆ of fold increase respect to VEGF induced response and the “HUVEC proliferation, cells counted/well” value [2] is reported as 63.5 ± 8.7 cells counted/well.

For “Vascular Endothelial Growth Factor [VEGF]”, the “VEGFR2 phosphorylation, fold increase respect to Ctr” value (VEGFR2 [3]; 50 ng/mL each, 15 min at 37 °C, PAEC overexpressing VEGFR2, western blot quantification, anti-phospho-Tyr, gels representative of three experiments) was 6.5 ± 1.3 fold increase respect to Ctr, the “VEGFR2 phosphorylation induced (in words)” value (VEGFR2 [3]; 50 ng/mL, 15 min, PAEC overexpressing VEGFR2 (Fig. 2A)) was “induced VEGFR2 phosphorylation” and the “blood vessel formation / angiogenesis in Matrigel plugs (in words)” value (C57 black mice) was “blood vessel formation was observed”.

B1: EP6 peptide (mini-VEGF; AcHx ligated to Hn6) (peptide)
chain: Ac-EKFMDVYQLKYKGIC[Ahp]QIMRIKPHQGQHIGETS-NH2
modifications: bridge 1-15 via isopeptide; reading uncertain; also: two peptides Hx (1-14, C-terminal amide after Ile14) and Hn (15-33) joined by isopeptide bond
Molecule B1 has a Kd [4] of 139 µM.
